Here are results for one compound from US12178840B2, “Method and compositions comprising a CT20 peptide” (UNIVERSITY OF CENTRAL FLORIDA RESEARCH FOUNDATION, INC., priority 2014, dated 2024).

The test system of one test is MCF-10A cells. Briefly: Biological effects of CT20 in HBPE-NPs in normal control epithelial cells. It counts as cell-based, human. The settings on record: CT20 (˜3.4 nM) in HBPE-NPs. Here is the method: This triggered hyperpolarization of the mitochondrial membrane and fusion-like aggregation (FIG. 3B) that impaired mitochondrial redistribution, ATP production, and F-actin polymerization (FIG. 3C). Cells remained viable during these “initiating events” (FIG. 3D). However, at 6 hours post-CT20 treatment, cells began detaching from the substrate (fibronectin) (FIG. 3E). This was preceded by decreased expression of integrins (β1 integrin is shown; FIG. 3F). By 24 hours post-CT20 treatment, “effector events” caused by peptide-induced detachment were detected, including the activation of caspases (FIG. 3G), the induction of autophagy (FIG. 3H), and increased ROS production (FIG. 3I). Cell death (anoikis), indicated by membrane asymmetry, was detected in cancer cells by 48 hours (FIG. 3J).

The target of test [1] is T1, Purified recombinant CCTβ (Homo sapiens, UniProt P78371).
T1 construct: purchased MyBioSource; host or cells: E. coli
T1 sequence (P78371 1-535): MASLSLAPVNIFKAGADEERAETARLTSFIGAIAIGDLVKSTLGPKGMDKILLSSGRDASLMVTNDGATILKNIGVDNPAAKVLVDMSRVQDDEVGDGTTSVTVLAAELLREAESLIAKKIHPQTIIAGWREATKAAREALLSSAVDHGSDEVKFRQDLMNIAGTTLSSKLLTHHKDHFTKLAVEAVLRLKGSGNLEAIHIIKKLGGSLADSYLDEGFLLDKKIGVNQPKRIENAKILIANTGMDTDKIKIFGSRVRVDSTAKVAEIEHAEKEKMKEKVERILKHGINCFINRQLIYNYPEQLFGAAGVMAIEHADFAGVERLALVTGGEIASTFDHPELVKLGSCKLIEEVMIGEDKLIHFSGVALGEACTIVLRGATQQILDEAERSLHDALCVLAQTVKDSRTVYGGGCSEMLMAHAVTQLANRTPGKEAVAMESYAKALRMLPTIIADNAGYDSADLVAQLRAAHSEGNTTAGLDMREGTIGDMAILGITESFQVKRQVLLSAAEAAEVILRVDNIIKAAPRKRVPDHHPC
Description: Pull-down with purified recombinant CCTβ. As to conditions: 0.1 nmol CCTβ, CT20p-Biotin 0.1 to 4 nmol. It counts as binding. As to the method:
FIG. 9 is representative data showing that CT20p binds directly to CCTβ. Purified recombinant CCTβ was tested for interaction with CT20p as described in Materials and Methods.
Pull down experiments: Lysate pull-downs were performed with 200 ug cell lysate, obtained by douncing as described above. Lysates were pre-cleared with streptavidin-agarose beads (Pierce), then incubated with […] of CT20-Biotin or biotin for 3 hours at room temperature, followed by overnight incubation at 4° C. with streptavidin-agarose beads. Beads were washed thoroughly with wash buffer (25 mM Tris, 150 mM NaCl, 0.1% NP40, pH7.4), then heated in 4× loading buffer (Invitrogen) for analysis by SDS-PAGE. Mass spectrometric analysis was performed by Moffit Cancer Center (Tampa, FL). Mass spectrometry results presented are of proteins with at least two unique peptides identified, and that were not recovered with biotin-only pull down. In-cell pull downs were performed by first delivering CT20p-Biotin encapsulated in nanoparticles to viable cells at a dose of 75 μg/mL for varying lengths of time. Following treatment, cells were collected and lysed by douncing. 200 ug of cell lysate were then incubated with streptavidin-agarose beads overnight at 4° C., and pull-down was completed as described above. […]

Residues, ends and D or L forms follow the SMILES beside them.

`CC[C@H](C)[C@H](NC(=O)[C@@H](NC(=O)[C@H](CC(C)C)NC(=O)[C@H](CO)NC(=O)[C@H](C)NC(=O)[C@@H](NC(=O)[C@H](CC(C)C)NC(=O)[C@@H](NC(=O)CNC(=O)[C@H](C)NC(=O)[C@@H](NC(=O)[C@H](Cc1ccccc1)NC(=O)[C@@H](NC(=O)[C@@H](NC(=O)[C@@H](NC(C)=O)C(C)C)[C@@H](C)O)[C@@H](C)CC)C(C)C)C(C)C)[C@@H](C)O)[C@@H](C)O)C(=O)N[C@@H](Cc1c[nH]c2ccccc12)C(=O)N[C@@H](CCCCN)C(=O)N[C@@H](CCCCN)C(=O)N[C@@H](CCSC)C(=O)NCC(N)=O` [CT20] (Ac-VTIFVAGVLTASLTIWKKMG-NH2): the “Cytoskeletal impairment and cell death in control epithelial cell line” value in the test with MCF-10A cells is given as “not observed”; with MCF-10A cells (listed as CT20 peptide) it was “minimal cell death”. The “Direct interaction with CCTβ” value in test [1] is “does interact directly with CCTβ”.
